The results in this text go back to ChEMBL document CHEMBL4651402, “Screening of ~5500 FDA-approved drugs and clinical candidates for anti-SARS-CoV-2 activity” (2021).

For this experiment, the system named is SARS-CoV-2. Kind of experiment: microbe, parasite or virus in culture. To be noted: Severe acute respiratory syndrome coronavirus 2, Vero C1008, 48 h; for IC50: read-out: pIC50 (converted).

pIC50: −log10 of the molar value. A value given as a limit tells only on which side of the number the result lay.

`CN1CCC(c2c[nH]c3ccc(NC(=O)c4ccc(F)cc4)cc23)CC1`: the pIC50 was less than 4.70 and the IC50 was more than 20 µM.
Consider `CO/N=C(\C#N)[C@@H]1CN2CCC1CC2`, for which the pIC50 was less than 4.70 and the IC50 was more than 20 µM.
In the same order, the values of `CC(C)c1nc(N(C)S(C)(=O)=O)nc(-c2ccc(F)cc2)c1/C=C/C(O)CC(O)CC(=O)O` (stereo unspecified) are less than 4.70 and more than 20 µM.
In the case of `CCOC(=O)/C=C/[C@H](C[C@@H]1CCNC1=O)NC(=O)[C@@H](CC(=O)[C@@H](NC(=O)c1cc(C)on1)C(C)C)Cc1ccc(F)cc1`, the negative-log IC50 (pIC50) is less than 4.60 and the IC50 is more than 25.1 µM.
On the same counts, the results for `CCc1cc(Nc2nc(-c3ccc(-n4cnc(C)c4)c(F)c3)cs2)c(C)cc1C` are less than 4.70 and more than 20 µM.
On to `O=C(Nc1ccccc1Br)N[C@H]1CCN(c2ccc(C(F)(F)F)cn2)C1`, for which the negative-log IC50 (pIC50) is less than 4.70 and the IC50 is more than 20 µM.
Regarding `Cc1ccc(S(=O)(=O)Nc2nc3ccccc3nc2Nc2ccc3nsnc3c2)cc1`, the pIC50 is less than 4.70 and the IC50 was more than 20 µM.
In the same order, the values of `O=C(O)C[C@@H]1CCc2c1[nH]c1ccc(OCc3ccc(C4CCCC4)c(C(F)(F)F)c3)cc21` are less than 4.70 and more than 20 µM.
On the same counts, the results for `O=C1c2cccnc2OC[C@@H]2CCCN12` are less than 4.70 and more than 20 µM.
As to `CCOC(=O)c1ccccc1OC(=O)CCCCCCCC(=O)Oc1ccccc1C(=O)OCC`, the pIC50 was less than 4.70 and the IC50 is more than 20 µM.
In the same order, the values of `CCN(CC)CCCCC(NC(=O)c1ccc([N+](=O)[O-])cc1)c1ccccc1` (stereo unspecified) are less than 4.70 and more than 20 µM.
On the same counts, the results for `CO[C@H]1C[C@@H]2CC[C@@H](C)[C@@](O)(O2)C(=O)C(=O)N2CCCC[C@H]2C(=O)O[C@H]([C@H](C)C[C@@H]2CC[C@@H](OP(C)(C)=O)[C@H](OC)C2)CC(=O)[C@H](C)/C=C(/C)[C@@H](O)[C@@H](OC)C(=O)[C@H](C)C[C@H](C)\C=C/C=C\C=C/1C` are less than 4.70 and more than 20 µM.
On the same counts, the results for `C[C@@H]1CCC2[C@](C)(CO)[C@@H](O)CC[C@]2(C)[C@]12CCC(CO)(CCO)O2` (stereo partly specified) are less than 4.70 and more than 20 µM.
Consider `C[C@H]1O[C@H](O[C@H]2[C@H](O)[C@@H](O)[C@@H](O[C@@H]([C@H](O)[C@@H](O)C=O)[C@H](O)CO)O[C@@H]2CO)[C@H](O)[C@@H](O)[C@@H]1N[C@H]1C=C(CO)[C@@H](O)[C@H](O)[C@H]1O.C[C@H]1O[C@H](O[C@H]2[C@H](O)[C@@H](O)[C@@H](O[C@H]3[C@H](O)[C@@H](O)[C@H](O)O[C@@H]3CO)O[C@@H]2CO)[C@H](O)[C@@H](O)[C@@H]1N[C@H]1C=C(CO)[C@@H](O)[C@H](O)[C@H]1O`, for which the negative-log IC50 (pIC50) is less than 4.70 and the IC50 is more than 20 µM.
On the same counts, the results for `COc1ccc2c(OC3CC4C(=O)NC5(C(=O)NS(=O)(=O)C6CC6)CC5/C=C\CCCCN(C)C(=O)C4C3)cc(-c3nc(C(C)C)cs3)nc2c1C` (stereo unspecified) are less than 4.70 and more than 20 µM.
For `C[C@@H]1C(=O)O[C@H]2[C@H](O)[C@]34[C@@H]5OC(=O)[C@]3(O[C@@H]3OC(=O)[C@H](O)C34C(C(C)(C)C)C5O)[C@@]12O` (stereo partly specified), the pIC50 was less than 4.70 and the IC50 is more than 20 µM.
As for `CCN1CCN(c2cc(-c3ccccc3)c3ccccc3n2)CC1`, the pIC50 is less than 4.70 and the IC50 was more than 20 µM.
In the same order, the values of `COC(=O)N[C@@H](C(=O)N1CCC[C@@H]1c1ncc(-c2ccc(-c3ccc(-c4cnc([C@H]5CC6(CN5C(=O)[C@H](NC(=O)OC)C(C)C)OCCO6)[nH]4)cc3)cc2)[nH]1)C(C)C` are less than 4.70 and more than 20 µM.
